In ChEMBL document CHEMBL4190226, “Designing novel inhibitors against histone acetyltransferase (HAT: GCN5) of Plasmodium falciparum” (Eur J Med Chem, 2017) one finds inhibition data, which are given here for one molecule.

Active and inactive are the calls of the source. The rule behind the calls is not given here.

The assay concerns the target Histone acetyltransferase GCN5 (Plasmodium falciparum (isolate 3D7)) (UniProt Q8IB67). In words: Inhibition of GCN5 in Plasmodium falciparum 3D7 assessed as reduction in H3K9 acetylation at 25 uM incubated for 15 mins measured by SDS-PAGE analysis.

Chain of Histone acetyltransferase GCN5 (Plasmodium falciparum (isolate 3D7)) (Q8IB67 as listed by the source): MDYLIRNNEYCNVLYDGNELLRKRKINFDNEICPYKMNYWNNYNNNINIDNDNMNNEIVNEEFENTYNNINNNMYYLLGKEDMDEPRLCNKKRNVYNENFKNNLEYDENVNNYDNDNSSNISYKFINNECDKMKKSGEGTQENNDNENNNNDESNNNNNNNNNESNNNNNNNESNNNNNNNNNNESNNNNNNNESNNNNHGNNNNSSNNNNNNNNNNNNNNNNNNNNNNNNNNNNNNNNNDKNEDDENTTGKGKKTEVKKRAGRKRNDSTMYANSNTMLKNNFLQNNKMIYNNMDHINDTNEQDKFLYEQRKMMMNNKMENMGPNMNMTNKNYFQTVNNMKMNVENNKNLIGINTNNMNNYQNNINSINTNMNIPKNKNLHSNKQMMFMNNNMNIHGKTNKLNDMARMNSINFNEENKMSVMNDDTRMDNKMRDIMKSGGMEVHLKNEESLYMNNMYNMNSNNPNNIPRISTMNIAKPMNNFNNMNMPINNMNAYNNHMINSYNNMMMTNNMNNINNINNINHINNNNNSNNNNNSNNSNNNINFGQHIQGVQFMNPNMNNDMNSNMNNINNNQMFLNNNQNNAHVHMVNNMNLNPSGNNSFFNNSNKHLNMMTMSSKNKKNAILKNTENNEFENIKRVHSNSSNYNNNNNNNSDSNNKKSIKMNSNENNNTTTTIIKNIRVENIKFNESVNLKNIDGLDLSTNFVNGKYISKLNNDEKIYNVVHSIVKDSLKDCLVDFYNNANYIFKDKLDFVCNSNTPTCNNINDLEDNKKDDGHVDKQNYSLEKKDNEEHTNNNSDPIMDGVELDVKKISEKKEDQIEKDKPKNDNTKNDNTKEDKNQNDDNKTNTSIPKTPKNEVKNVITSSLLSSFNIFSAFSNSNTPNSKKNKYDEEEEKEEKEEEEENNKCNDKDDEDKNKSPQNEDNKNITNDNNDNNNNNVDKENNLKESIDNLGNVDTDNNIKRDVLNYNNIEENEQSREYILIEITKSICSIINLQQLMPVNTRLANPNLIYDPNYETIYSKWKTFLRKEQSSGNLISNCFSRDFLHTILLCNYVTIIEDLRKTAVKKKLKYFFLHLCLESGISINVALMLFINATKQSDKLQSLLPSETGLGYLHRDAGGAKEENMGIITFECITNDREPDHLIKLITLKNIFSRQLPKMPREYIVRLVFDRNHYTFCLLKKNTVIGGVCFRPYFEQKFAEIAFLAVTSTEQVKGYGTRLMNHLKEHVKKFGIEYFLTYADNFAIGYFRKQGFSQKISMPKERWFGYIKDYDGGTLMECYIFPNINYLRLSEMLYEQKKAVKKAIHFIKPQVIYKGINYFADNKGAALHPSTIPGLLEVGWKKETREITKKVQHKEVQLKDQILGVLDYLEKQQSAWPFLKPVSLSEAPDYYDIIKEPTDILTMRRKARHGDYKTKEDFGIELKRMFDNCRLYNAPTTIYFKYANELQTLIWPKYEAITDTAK

With `CCCCCCCCCCCC1=C(O)C(=O)C=C(O)C1=O`, the inhibition entry was “Active”.
